Assay results taken from article PMC8243516, “Inhibition of lysosomal phospholipase A2 predicts drug-induced phospholipidosis” (Journal of Lipid Research, 2021).
Where two headings read alike, the source gives them in different places.

Experiments:
LPLA2 = biological target: T1, LPLA2 (Mus musculus, UniProt Q8VEB4); test: LPLA2 thermal stability measurement (SYPRO Orange Tm); format: binding
T1 construct: purchased Proteos Inc. (Kalamazoo, MI)
T1 sequence (Q8VEB4 34-412): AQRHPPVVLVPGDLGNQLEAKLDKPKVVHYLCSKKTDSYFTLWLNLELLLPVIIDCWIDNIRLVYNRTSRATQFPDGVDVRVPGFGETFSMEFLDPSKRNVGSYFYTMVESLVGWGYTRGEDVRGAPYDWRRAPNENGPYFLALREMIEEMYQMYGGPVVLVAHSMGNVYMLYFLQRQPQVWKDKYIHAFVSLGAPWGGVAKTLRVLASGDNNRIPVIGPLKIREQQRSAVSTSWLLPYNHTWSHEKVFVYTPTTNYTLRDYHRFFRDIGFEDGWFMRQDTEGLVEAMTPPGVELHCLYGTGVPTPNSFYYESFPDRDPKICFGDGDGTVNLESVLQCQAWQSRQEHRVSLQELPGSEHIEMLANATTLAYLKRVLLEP

[1] = cited from earlier work
MDCK cells = test: Screening phospholipidosis assay (LipidTOX Red / NucBlue Live fluorescence ratio); conditions: for Ratio (15 μM): LipidTOX Red to NucBlue Live fluorescence ratio, 24 h
[2] = biological target: T2, recombinant mouse LPLA2 (PLA2G15) (Mus musculus, UniProt Q8VEB4); test: Transacylase activity of LPLA2 (1-O-acyl-N-acetylsphingosine synthase, cell-free liposome assay); format: biochemical
T2 construct: purchased Proteos Inc. (Kalamazoo, MI)
T2 sequence (Q8VEB4 34-412): T1 sequence (Q8VEB4 34-412)

phospholipidosis [3] = conditions: phospholipidosis reported in vitro; Refs of Table 1; cited from earlier work
phospholipidosis [4] = conditions: phospholipidosis reported in vivo, species codes; Refs of Table 1; cited from earlier work
[5] = ref Pubchem and chEMBL database
[6] = LPLA2 dependent 1-O-acyl N-acetylsphingosine synthase activity, read-out: LPLA2 IC50
[7] = ref Pubchem and chEMBL databases
[8] = 1-O-acyl N-acetylsphingosine synthase activity, pH 4.5, DOPC/sulfatide liposomes, read-out: LPLA2 IC50

SMILES | (ΔTm)c-(ΔTm)d, difference in melting temperature of LPLA2 alone or in the presence of drug (LPLA2; N=3 ± SD) | pKa (basic) [1, 5] | Ratio (15 μM) (MDCK cells) | IC50 [2, 6] | further results
Cn1c(=O)[nH]c2ncn(C)c2c1=O [1,7-Dimethylxanthine] | 0 °C | 13.5 | 0.55 |  | 
Oc1ncnc2[nH]ncc12 [Allopurinol] | 0.67 ± 0.2 °C | 2.57 | 0.37 |  | 
CCN1CCCC1CNC(=O)c1cc(S(=O)(=O)CC)c(N)cc1OC (stereo not drawn) [Amisulpride] | 0 °C | 7.05 | 0.08 | 1920 µM | 
O=C(CCCN1CCN(c2ccccn2)CC1)c1ccc(F)cc1 [Azaperone] | 0.93 ± 0.1 °C | 7.16 | 0.43 |  | 
CCc1oc2ccccc2c1C(=O)c1cc(Br)c(O)c(Br)c1 [Benzbromarone, 2,6-dibromo-4-(2-ethyl-1-benzofuran-3-carbonyl)phenol] |  |  | 0.5 |  | IC50 ([2]; LPLA2 IC50, 1-O-acyl N-acetylsphingosine synthase activity, pH 4.5, DOPC/sulfatide liposomes): 3.8 µM; (ΔTm)c-(ΔTm)d, difference in melting temperature of LPLA2 alone or in the presence of drug (LPLA2): -1.40 ± 0.3 °C; pKa (basic) [1, 7]: -3.8; In Vitro PLD (phospholipidosis [3]): Yes
CN(Cc1ccc(C(C)(C)C)cc1)Cc1cccc2ccccc12 [Butenafine] | -2.22 ± 0.3 °C | 9.23 | 0.31 | 41.2 µM | 
NC(=O)N1c2ccccc2C=Cc2ccccc21 [Carbamazepine] | -1.26 ± 0.1 °C | -3.8 | 0.18 | 106 µM | 
Clc1cccc(Cl)c1N=C1NCCN1 [Clonidine] | -0.62 ± 0.0 °C | 8.16 | 0.25 |  | 
CCOC(=O)COc1ccc2c(C)c(CCN(CC)CC)c(=O)oc2c1Cl [Cloricromen] | 0.24 ± 0.1 °C | 9.1 | 0.1 | 285 µM | 
COc1cc(C(=O)OCCCN2CCCN(CCCOC(=O)c3cc(OC)c(OC)c(OC)c3)CC2)cc(OC)c1OC [Dilazep] | 0.11 ± 0.1 °C | 9.54 | 1.17 | 59.8 µM | 
COc1ccc(C(=O)Nc2ccccc2CCC2CCCCN2C)cc1 (stereo not drawn) [Encainide, 4-methoxy-N-{2-[2-(1-methylpiperidin-2-yl)ethyl]phenyl} benzamide] | -0.76 ± 0.1 °C |  | 0.23 |  | IC50 [2, 8]: 76.1 µM; pKa (basic) [1, 7]: 9.41; In Vitro PLD (phospholipidosis [3]): Yes
O=C1NCC2(CCN(CCc3ccccc3)CC2)O1 [Fenspiride] | -1.67 ± 1.0 °C | 9.37 | 0.07 |  | 
O=C(O)[C@@H]1C[C@@H](C2CCCCC2)CN1C(=O)CP(=O)(O)CCCCc1ccccc1 [Fosinoprilat] | -1.45 ± 0.9 °C | -4.7 | 0.19 | 5.76 µM | IC50 [2, 8]: 5.8 µM; Signal in the LipidTOX assay (in words) (MDCK cells): positive signal
C[C@]12CC[C@@H]3c4ccc(O)cc4C[C@@H](CCCCCCCCC[S+]([O-])CCCC(F)(F)C(F)(F)F)[C@H]3[C@@H]1CC[C@@H]2O (stereo partly drawn) [Fulvestrant] | -1.05 ± 4.0 °C | -0.88 | 0.37 | 61.8 µM | 
CC(=O)O[C@H]1C[C@@]2(C)[C@@H](C[C@@H](O)[C@H]3[C@@]4(C)CC[C@@H](O)[C@@H](C)[C@@H]4CC[C@@]32C)/C1=C(\CCC=C(C)C)C(=O)O [Fuscidic acid] | 0.94 ± 0.1 °C | -0.2 | 0.23 | 231 µM | 
NNc1nncc2ccccc12 [Hydralazine] | 1.20 ± 0.1 °C | 6.4 | 0.6 | 100 µM | 
CC(C)Cn1cnc2c(N)nc3ccccc3c21 [Imiquimod] | 0.66 ± 0.2 °C | 5.01 | 0.07 | 160 µM | 
CC(COc1ccccc1)NC(C)C(O)c1ccc(O)cc1 (stereo not drawn) [Isoxsuprine] | 1.1 ± 0.0 °C | 9 | 1.22 |  | 
Cc1ccc(Cl)c(Nc2ccccc2C(=O)O)c1Cl [Meclofenamic acid] | -0.23 ± 0.1 °C | -3.6 | 0.52 |  | 
COc1ccc2[nH]cc(CCNC(C)=O)c2c1 [Melatonin] | 0.15 ± 0.1 °C | -1.6 | 0.26 | 38 µM | 
COCC(=O)O[C@]1(CCN(C)CCCc2nc3ccccc3[nH]2)CCc2cc(F)ccc2[C@@H]1C(C)C [Mibefradil] | 1.30 ± 0.1 °C | 9.82 | 1.21 | 12.9 µM | 
Fc1ccc([C@@H]2CCNC[C@H]2COc2ccc3c(c2)OCO3)cc1 [Paroxetine, (3S,4R)-3-[(2H-1,3-benzodioxol-5-yloxy)methyl]-4-(4-fluorophenyl)piperidine] |  |  |  |  | IC50 [2, 8]: 5.12 µM; In Vivo PLD (phospholipidosis [4]): R
NC(=O)C1(N2CCCCC2)CCN(CCCC(=O)c2ccc(F)cc2)CC1 [Pipamperone] | 0.83 ± 0.1 °C | 8.96 | 0.37 | 250 µM | 
Cc1nc2sccn2c(=O)c1CCN1CCC(=C(c2ccc(F)cc2)c2ccc(F)cc2)CC1 [Ritanserin] | -1.90 ± 02 °C | 8 | 0.19 | 13.4 µM | 
COc1ccc(C2CNC(=O)C2)cc1OC1CCCC1 (stereo not drawn) [Rolipram] | -1.85 ± 0.9 °C | -1.9 | 0.19 | 300 µM | 
CCCCCCCCNC(C)C(O)c1ccc(SC(C)C)cc1 (stereo not drawn) [Suloctidil] | 2.00 ± 0.2 °C | 9.76 | 0.66 | 6.82 µM | 
CN1CCN(CCCN2c3ccccc3Sc3ccc(C(F)(F)F)cc32)CC1 [Trifluoperazine] |  | 8.39 | 0.81 | 6.87 µM | (ΔTm)c-(ΔTm)d, difference in melting temperature of LPLA2 alone or in the presence of drug (LPLA2): 0.49 ± 0.3 °C
Cc1cc(C(C)(C)C)cc(C)c1CC1=NCCN1 [Xylometazoline] | 0.66 ± 0.0 °C | 10.29 | 0.16 | 44.3 µM | 
CC[C@H](NC(=O)c1c(C)c(-c2ccccc2)nc2ccccc12)c1ccccc1 [sb222200] | -1.20 ± 0.1 °C | 9.57 | 0.34 | 14.9 µM | 
